This note sets out measurements from ChEMBL document CHEMBL4665702, “Cacalol Acetate, a Sesquiterpene from Psacalium decompositum, Exerts an Anti-inflammatory Effect through LPS/NF-KB Signaling in Raw 264.7 Macrophages” (2020).

In assay [1] the test system is RAW264.7. The assay can be described thus: Anti-inflammatory activity in mouse RAW264.7 cells assessed as inhibition of LPS-induced IL-1beta mRNA expression at 10 uM preincubated for 1 hr followed by LPS administration measured after 3 hrs by RT-PCR analysis. In kind it is functional, cell-based. Conditions: time 4.0 hrs.
The test system of assay [2] is RAW264.7. In words: Anti-inflammatory activity in mouse RAW264.7 cells assessed as inhibition of LPS-induced IL-1beta production at 10 uM preincubated for 1 hr followed by LPS administration measured after 3 hrs by ELISA. In kind it is functional, cell-based. Conditions: time 4.0 hrs. (In general: In an ELISA, binding on a coated surface is turned into a signal by an enzyme label.)

The test system of assay [3] is RAW264.7. In words: Anti-inflammatory activity in mouse RAW264.7 cells assessed as inhibition of LPS-induced TNF-alpha production at 10 uM preincubated for 1 hr followed by LPS administration measured after 3 hrs by ELISA. Conditions: time 4.0 hrs. In kind it is functional, cell-based.
For assay [4], the system named is RAW264.7. In words: Anti-inflammatory activity in mouse RAW264.7 cells assessed as inhibition of LPS-induced TNF-alpha mRNA expression at 10 uM preincubated for 1 hr followed by LPS administration measured after 3 hrs by RT-PCR analysis. Conditions: time 4.0 hrs. The assay is classed as functional, cell-based.
Assay [5] deals with Transcription factor p65 (Mus musculus) (UniProt Q04207). The assay can be described thus: Inhibition of p65 phosphorylation at Ser536 residues in LPS-induced mouse RAW 264.7 cells at 10 uM preincubated for 1 hr followed by LPS administration measured after 25 mins by Western blot analysis relative to control. Conditions: RAW264.7, dose 100.0 µM, time 85.0 min.
Target sequence in this assay (Q04207 whole entry, looked up): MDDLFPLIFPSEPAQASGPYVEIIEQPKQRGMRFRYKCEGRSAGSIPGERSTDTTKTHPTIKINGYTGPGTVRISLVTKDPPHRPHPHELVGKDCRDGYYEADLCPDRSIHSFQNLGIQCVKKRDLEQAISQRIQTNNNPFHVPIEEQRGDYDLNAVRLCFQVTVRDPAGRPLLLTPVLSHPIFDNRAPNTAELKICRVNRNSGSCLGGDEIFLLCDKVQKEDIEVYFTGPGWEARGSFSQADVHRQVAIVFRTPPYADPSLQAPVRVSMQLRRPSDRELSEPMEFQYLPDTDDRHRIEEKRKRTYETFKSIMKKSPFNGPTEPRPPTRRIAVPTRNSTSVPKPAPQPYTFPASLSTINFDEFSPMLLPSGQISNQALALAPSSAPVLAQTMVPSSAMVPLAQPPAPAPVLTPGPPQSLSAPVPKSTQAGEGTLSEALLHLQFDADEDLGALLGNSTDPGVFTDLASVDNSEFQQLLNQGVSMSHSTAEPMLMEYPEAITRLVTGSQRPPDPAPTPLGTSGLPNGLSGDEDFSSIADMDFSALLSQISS
Assay [6] has as its system RAW264.7. The assay can be described thus: Anti-inflammatory activity in mouse RAW264.7 cells assessed as inhibition of LPS-induced IL-6 production at 10 uM preincubated for 1 hr followed by LPS administration measured after 3 hrs by ELISA. The assay is classed as functional, cell-based. Conditions: time 4.0 hrs.
Assay [7] addresses T1, Inhibitor of nuclear factor kappa-B kinase subunit beta (Mus musculus) (UniProt O88351).
T1 sequence (whole entry): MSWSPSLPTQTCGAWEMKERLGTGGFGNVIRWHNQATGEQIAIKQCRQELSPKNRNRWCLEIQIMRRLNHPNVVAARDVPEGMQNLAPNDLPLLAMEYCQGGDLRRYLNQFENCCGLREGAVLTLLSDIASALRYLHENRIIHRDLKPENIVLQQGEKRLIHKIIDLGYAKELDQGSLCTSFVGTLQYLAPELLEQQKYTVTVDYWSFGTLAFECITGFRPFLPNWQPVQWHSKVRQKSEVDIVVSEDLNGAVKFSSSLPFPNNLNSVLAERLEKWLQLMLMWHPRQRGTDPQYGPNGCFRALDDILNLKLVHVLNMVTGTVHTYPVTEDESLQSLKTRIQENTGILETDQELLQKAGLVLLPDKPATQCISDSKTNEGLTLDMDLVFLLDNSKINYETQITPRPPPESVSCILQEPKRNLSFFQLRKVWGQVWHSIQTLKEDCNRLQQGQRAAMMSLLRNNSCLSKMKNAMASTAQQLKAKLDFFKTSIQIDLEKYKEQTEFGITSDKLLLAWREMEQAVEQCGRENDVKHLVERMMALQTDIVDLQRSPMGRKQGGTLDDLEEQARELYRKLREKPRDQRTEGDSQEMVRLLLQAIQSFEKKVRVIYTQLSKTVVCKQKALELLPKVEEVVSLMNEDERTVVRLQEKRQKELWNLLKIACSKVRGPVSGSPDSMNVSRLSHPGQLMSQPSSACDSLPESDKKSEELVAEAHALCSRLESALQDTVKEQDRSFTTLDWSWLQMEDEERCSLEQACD
The assay can be described thus: Inhibition of IKK-beta phosphorylation at Ser176/177 residues in LPS-induced mouse RAW 264.7 cells at 10 uM preincubated for 1 hr followed by LPS administration measured after 25 mins by Western blot analysis relative to control. Conditions: RAW264.7, time 85.0 min. (In western blotting, separated proteins are transferred to a membrane and probed.)

Assay [8] concerns RAW264.7. The assay can be described thus: Anti-inflammatory activity in mouse RAW264.7 cells assessed as inhibition of LPS-induced IL-6 mRNA expression at 10 uM preincubated for 1 hr followed by LPS administration measured after 3 hrs by RT-PCR analysis. The assay is classed as functional, cell-based. Conditions: time 4.0 hrs.
For assay [9], the system named is RAW264.7. The assay can be described thus: Anti-inflammatory activity in mouse RAW264.7 cells assessed as inhibition of LPS-induced IL-1beta production at 50 to 100 uM preincubated for 1 hr followed by LPS administration measured after 3 hrs by ELISA. The assay is classed as functional, cell-based. Conditions: dose microM 50-100, time 4.0 hrs.
Assay [10] has as its system RAW264.7. The assay can be described thus: Anti-inflammatory activity in mouse RAW264.7 cells assessed as inhibition of LPS-induced IL-6 mRNA expression at 50 to 100 uM preincubated for 1 hr followed by LPS administration measured after 3 hrs by RT-PCR analysis. The assay is classed as functional, cell-based. Conditions: dose microM 50-100, time 4.0 hrs.
The subject of assay [11] is RAW264.7. The assay can be described thus: Anti-inflammatory activity in mouse RAW264.7 cells assessed as inhibition of LPS-induced IL-6 production at 50 to 100 uM preincubated for 1 hr followed by LPS administration measured after 3 hrs by ELISA. The assay is classed as functional, cell-based. Conditions: dose microM 50-100, time 4.0 hrs.
Assay [12] concerns RAW264.7. In words: Anti-inflammatory activity in mouse RAW264.7 cells assessed as inhibition of LPS-induced COX2 mRNA expression at 50 to 100 uM preincubated for 90 mins followed by LPS administration measured after 3 hrs by RT-qPCR analysis. In kind it is functional, cell-based. Conditions: dose microM 50-100, time 270.0 min. On the technique in general: Real-time PCR tracks product formation cycle by cycle.

The test system of assay [13] is RAW264.7. The assay can be described thus: Anti-inflammatory activity in mouse RAW264.7 cells assessed as inhibition of LPS-induced COX2 level at 50 to 100 uM preincubated for 90 mins followed by LPS administration measured after 3 hrs by fluorimetric analysis relative to control. The assay is classed as functional. Conditions: dose microM 50-100; time 270 min; 4.5 h.

For assay [14], the target named is T1, Inhibitor of nuclear factor kappa-B kinase subunit beta (Mus musculus). In words: Inhibition of IKK-beta phosphorylation at Ser176/177 residues in LPS-induced mouse RAW 264.7 cells at 50 to 100 uM preincubated for 1 hr followed by LPS administration measured after 25 mins by Western blot analysis. Conditions: RAW264.7, dose microM 50-100, time 85.0 min.
Assay [15] relates to RAW264.7. In words: Inhibition of NFkappaB in mouse RAW 264.7 cells assessed as reduction in LPS-induced transcriptional activation at 100 uM preincubated for 1 hr followed by LPS administration measured after 25 mins by EMSA relative to control. Conditions: time 85.0 min. The assay is classed as cell-based.
The test system of assay [16] is RAW264.7. The assay can be described thus: Anti-inflammatory activity in mouse RAW264.7 cells assessed as inhibition of LPS-induced IL-1beta mRNA expression at 50 to 100 uM preincubated for 1 hr followed by LPS administration measured after 3 hrs by RT-PCR analysis. In kind it is functional, cell-based. Conditions: dose microM 50-100, time 4.0 hrs.
For assay [17], the target named is Transcription factor p65 (Mus musculus) (UniProt Q04207). The assay can be described thus: Inhibition of p65 phosphorylation at Ser536 residues in LPS-induced mouse RAW 264.7 cells at 100 uM preincubated for 1 hr followed by LPS administration measured after 25 mins by Western blot analysis relative to control. Conditions: RAW264.7, time 85.0 min.
Target sequence in this assay (Q04207 whole entry): as the sequence (Q04207 whole entry, looked up) above
Assay [18] deals with RAW264.7. The assay can be described thus: Anti-inflammatory activity in mouse RAW264.7 cells assessed as inhibition of LPS-induced COX2 protein level at 50 to 100 uM preincubated for 90 mins followed by LPS administration measured after 3 hrs by RT-qPCR analysis relative to control. In kind it is functional. Conditions: dose microM 50-100; time 270 min; 4.5 h.
The subject of assay [19] is Mus musculus. In words: Anti-inflammatory activity in TPA-induced CD-1 mouse ear edema model assessed as inhibition of ear edema at 1 mg relative to control. In kind it is functional.
For assay [20], the system named is RAW264.7. The assay can be described thus: Anti-inflammatory activity in mouse RAW264.7 cells assessed as inhibition of LPS-induced TNF-alpha mRNA expression at 50 to 100 uM preincubated for 1 hr followed by LPS administration measured after 3 hrs by RT-PCR analysis. Conditions: dose microM 50-100, time 4.0 hrs. The assay is classed as functional, cell-based.

Assay [21] relates to RAW264.7. In words: Inhibition of NFkappaB in mouse RAW 264.7 cells assessed as reduction in LPS-induced transcriptional activation at 50 uM preincubated for 1 hr followed by LPS administration measured after 25 mins by EMSA relative to control. The assay is classed as cell-based. Conditions: time 85.0 min.
The subject of assay [22] is Mus musculus. In words: Anti-inflammatory activity in TPA-induced CD-1 mouse ear edema model assessed as ear weight at 1 mg. The assay is classed as functional.
In assay [23] the test system is RAW264.7. In words: Anti-inflammatory activity in mouse RAW264.7 cells assessed as inhibition of LPS-induced TNF-alpha production at 50 to 100 uM preincubated for 1 hr followed by LPS administration measured after 3 hrs by ELISA. Conditions: dose microM 50-100, time 4.0 hrs. The assay is classed as functional, cell-based.

Activity calls are given as the source filed them. The calls are words filed in the database; no cut-off is given here.

Consider `CC(C)(C)c1ccc(S(=O)(=O)/C=C/C#N)cc1`, for which the inhibition result in the assay with RAW264.7 [1], in the assay with RAW264.7 [2], in the assay on RAW264.7 [3], with RAW264.7 [4], in the assay with RAW264.7 [6] and in the assay on RAW264.7 [8] was “Active” each time. The fold change (FC) in assay [5] was 0.1; in [7] it was 1.5.

Regarding `CC(=O)Oc1c2c(c(C)c3c(C)coc13)[C@@H](C)CCC2`, the inhibition entry in the assay with RAW264.7 [9], with RAW264.7 [10], in the assay on RAW264.7 [11], with RAW264.7 [12], in the assay on RAW264.7 [16] and in the assay with RAW264.7 [20] was “Active” throughout. Besides, the inhibition entry in the assay on RAW264.7 [23] was “Active”. For the same compound, the “fold change (FC)” value in the assay with RAW264.7 [13] was determined as 2.5; in the assay on RAW264.7 [15] it was 2.1; in assay [17] it was 0.2; with RAW264.7 [18] it was 2; with RAW264.7 [21] it was 1.7. In addition, the inhibition result in assay [14] was “inactive”. Moreover, in the assay on Mus musculus [19], the “inhibition (INH)” value is listed as 70.3%. The Activity in the assay with Mus musculus [22] worked out at 6.56 mg.

As to `COc1ccc2c(c1)c(CC(=O)O)c(C)n2C(=O)c1ccc(Cl)cc1` [INDOMETHACIN], the “inhibition (INH)” value in the assay on Mus musculus [19] worked out at 78.6%. In addition, the Activity with Mus musculus [22] is 4.05 mg.

`Cc1coc2c(O)c3c(c(C)c12)[C@@H](C)CCC3` [CACALOL]: the “inhibition (INH)” value in the assay on Mus musculus [19] is given as 48.5%. Besides, in the assay with Mus musculus [22], the Activity is listed as 8.55 mg.
